Consider 4 molecules from patent US20170290886A1, “TREATMENT OF NEURODEVELOPMENTAL DISORDERS” (Academia Sinica, priority 2016, published 2017).

Common to all, as to assay type: in vivo, rat
Series [1] concerns MeCP2 phosphorylation at Ser-421. Kind of series: MeCP2 phosphorylation at Ser-421 in CA1 area (western blot). As to conditions: 1 hr. Here is the method:
(§1) The E3 SUMO-protein ligase PIAS1, MeCP2, Flag, V5 and Myc, the clarified lysate (0.5 mg) was immunoprecipitated by mixed with 0.5 μl of anti-PIAS1 antibody (Catalog No. 2474-1, Epitomics, Burlingame, Calif.), 2 μl of anti-MeCP2 antibody (Catalog No. 3456, Cell Signaling, Danvers, Mass.), 2 μl of anti-Flag M2 antibody (Catalog No. F1804, Sigma-Aldrich, St. Louis, Mo.), 1 μl of anti-VS antibody (Catalog No. MCA2895, AbD Serotec, Kidlington, UK) and 2 μl of anti-Myc antibody (Catalog No. 05-419, Millipore, Bedford, Mass.) at 4° C., and allowed the mixture to react overnight. Twenty microliter of rabbit or mouse IgG was used in the control group. The protein A or G magnetic beads ([…], 50% slurry, GE Healthcare, Barrington, IL) were added to the IP reaction product to catch the immune complex at 4° C. for 3 h. The immune complex on beads were washed three times with washing buffer containing 20 mM HEPES (pH 7.4), 150 mM NaCl, 1 mM EDTA, 1% IGEPAL CA-630, 1 mM DTT, 50 mM β-glycerophosphate, 50 mM NaF, 10 mg/ml PMSF, 4 µg/ml aprotinin, 4 μg/ml leupeptin and 4 μg/ml pepstatin, and then subject to 8% SDS-PAGE followed by transferring onto the Nitrocellulose (NC) membrane (GE Healthcare). […] The protein bands were quantified by using the NIH Image J Software. […]
(In western blotting, separated proteins are transferred to a membrane and probed.)

Another series concerns MeCP2 SUMOylation. Kind of series: In vitro SUMOylation assay for CA1 tissue. Here is the method: Hippocampal CA1 tissue lysate was prepared in the same way as that prepared for western blot. For immunoprecipitating the MeCP2, the clarified lysate (0.5 mg) was immunoprecipitated with 3 μl of anti-MeCP2 antibody (Catalog No. 3456, Cell Signaling) at […] overnight. The protein A agarose beads ([…], 50% slurry, GE Healthcare, Barrington, Ill.) were added to the IP reaction product to catch the immune complex at […] for 3 h. The immune complex on beads were washed three times with washing buffer containing 20 mM HEPES (pH 7.4), 150 mM NaCl, 1 mM EDTA, 1% IGEPAL CA-630, 1 mM DTT, 50 mM β-glycerophosphate, 50 mM NaF, […] PMSF, […] and subject to in vitro SUMOylation reaction with the addition of recombinant PIAS1 protein (3 μl, Catalog No. BML-UW9960, Enzo Life
Sciences, Farmingdale, N.Y.), E1(1 μl), E2 (1 μl) and the SUMO1 (0.5 μl) proteins provided in the kit. In vitro SUMOylation assay was performed using the SUMO linkTM kit according to the manufacturer's instructions (Active Motif, Carlsbad, Calif.) and boiled in Laemmli sample buffer at 95° C. for 10 min. The in vitro SUMOylation product was subject to 8% SDS-PAGE followed by transferring onto the PVDF membrane (Millipore). The membrane was immunoblotted with anti-MeCP2 antibody (1:1000, Catalog No. 3456, Cell Signaling) or anti-SUMO1 antibody (1:4000, Catalog No. 40120, Active Motif). For determination of endogenous MeCP2 SUMOylation after PIAS1 siRNA transfection, no E1, E2, SUMO1 and PIAS1 proteins were added to the IP reaction product. The remaining procedures were the same as that for carrying out the in vitro SUMOylation assay.
Rats were anesthetized with pentobarbital (40 mg/kg) and subject to stereotaxic surgery. Two 23-gauge, stainless-steel, thin-wall cannulae were implanted bilaterally to the CA1 area of rat brain at the following coordinates: 3.5 mm posterior to the bregma, ±2.5 mm lateral to the midline and 3.4 mm ventral to the skull surface. After recovery from the surgery, NMDA (2 μg/μl), IGF-1 (100 ng/ml), CRF (100 ng/μl) and dexamethasone (30 ng/μl) were directly injected to the CA1 area at a rate of 0.1 μl/min. A total of 0.7 μl was injected to each side. For transient Mecp2 plasmid DNA transfection, 0.7 μg/μl plasmid DNA complex ([…]) was injected directly to CA1 area bilaterally in the rat brain using the non-viral transfection agent polyethyleneimine (PEI). Before injection, plasmid DNA was diluted in 5% glucose to a stock concentration of 2.77 μg/μl. Branched PEI of 25 kDa (Sigma, St. Louis, Mo.) was diluted to 0.1 M concentration in 5% glucose and added to the DNA solution. Immediately before injection, 0.1 M PEI was added to reach a ratio of PEI nitrogen per DNA phosphate equals to 10. […]

In another series the test system is PIAS1. The series can be described thus: PIAS1 expression in CA1 area (western blot). As to conditions: siRNA 8 pmol; FIG. 2h lower panel. Here is the method: as §1

Where no end group is shown, it is not given here.

With `CN[C@H](CC(=O)O)C(=O)O` [NMDA, N-methyl-D-aspartate], in series [1] (NMDA 2 μg/μl injected to CA1 area, FIG. 3b), the “phosphorylation level of MeCP2 at Ser-421” value is recorded as “increased the phosphorylation level of MeCP2 at Ser-421”. The “level of MeCP2 SUMOylation” value with MeCP2 SUMOylation (NMDA 2 μg/μl injected to CA1 area, 1 hr, vs Flag-vector + PBS, FIG. 3b) was “increased the level of MeCP2 SUMOylation”. Regarding “CRF: Corticotropin-releasing factor, purchased from Sigma-Aldrich (SEEPPISLDLTFHLLREVLEMARAEQLAQQAHSNRKLMEII; ends and bridges not checked; UniProt P06850 154-194, looked up)”, in the series on MeCP2 SUMOylation (CRF injected to CA1 area, 1 hr later, vs PBS, FIG. 3d), the “level of MeCP2 SUMOylation” value is listed as “markedly increased the level of MeCP2 SUMOylation”.

As to “IGF-1: Insulin-like growth factor-1, purchased from Sigma-Aldrich”, the “phosphorylation level of MeCP2 at Ser-421” value in series [1] (IGF-1 100 ng/ml injected to CA1 area, FIG. 3c) is recorded as “increased the phosphorylation level of MeCP2 at Ser-421”. Besides, in the series with MeCP2 SUMOylation (IGF-1 100 ng/ml injected to CA1 area, 1 hr later, vs PBS, FIG. 3c), the “level of MeCP2 SUMOylation” value is “significantly increased the level of MeCP2 SUMOylation”. Turning to “PIAS1 siRNA: siRNA against PIAS1, SEQ ID NO: 18 and 19 (chain 1 UCCGGAUCAUUCUAGAGCUTT; chain 2 AGCUCUAGAAUGAUCCGGATT; chemistry not given here)”, the “PIAS1 expression in CA1 area” value in the series with PIAS1 is on record as “decreased PIAS1 expression”. Also, the “level of endogenous MeCP2 SUMOylation” value with MeCP2 SUMOylation (siRNA 8 pmol to CA1 area, 48 hrs later, vs control siRNA, FIG. 2g, 2h) was “significantly decrease the level of endogenous MeCP2 SUMOylation”.
